Source: patent publication US20240050409A1, “Methods and Compositions for Treating Psychotic Disorders” (SOUND PHARMACEUTICALS INCORPORATED, priority 2014, published 2024)
Entries after “also recorded” stand apart in the source; their conditions may differ.

Legend:
[1] = system: NVHL rats; assay: Mismatch negativity (MMN), auditory evoked potentials, NVHL rats; format: in vivo, Sprague-Dawley rats; details: juvenile treatment
Method: Abnormal excitation-inhibition balance in adult NVHL rats can yield altered information processing that would be prevented by NAC treatment if it depended on oxidative stress. Mismatch negativity (MMN) was tested using auditory evoked potentials in an oddball paradigm in SHAM (n=6), NVHL (n=3), and NAC-treated NVHL rats (n=3). MMN has high translational relevance, as it is attenuated in schizophrenia patients (Javitt et al., 1993) and in animal models (Ehrlichman et al., 2009). Electroencephalographic (EEG) electrodes were implanted in NVHL, NAC-treated NVHL, and SHAM rats. This observation is consistent with the effect of NAC on MMN in patients (Lavoie et al., 2008), and indicates the NVHL model reproduces an important disease marker that can be prevented by juvenile antioxidant treatment. As MMN depends on NMDA receptor function (Umbricht et al., 2000) and NMDA hypofunction in PVI is suspected in schizophrenia, it is possible that MMN improvement with NAC results from restored PVI activity. […]
Mismatch Negativity: NVHL, NAC-treated NVHL, and sham female rats were implanted with chronic EEG electrodes under isoflurane anesthesia. […] A difference wave was constructed by subtracting the standard wave from the deviant wave, and MMN was quantified by measuring the area under the curve in the period between 35 and 100 ms after the stimulus. […]

[2] = system: NVHL rats; assay: Prepulse inhibition of the acoustic startle response (PPI) in NVHL rats; format: in vivo, Sprague-Dawley rats; details: adult NVHL rats
Method: To assess whether juvenile oxidative stress leads to behavioral deficits, a behavioral paradigm was used for testing in both animal models and schizophrenia patients. Prepulse inhibition of the acoustic startle response (PPI) is a measure of sensorimotor gating that is reduced in patients (Geyer and Braff, 1987) and NVHL rats (Lipska et al., 1995). PPI was tested in adult sham (n=11), NAC-treated sham (n=12), NVHL (n=9), and NAC-treated NVHL rats (n=17). In addition to loss of PVI maturation and electrophysiological anomalies, developmental oxidative stress in juvenile NVHL rats can cause schizophrenia-relevant adult behavioral deficits.
The beneficial effect of NAC treatment includes a large postnatal treatment that starts prior to the lesion and stops once rats become young adults. For full translational value one determines whether NAC is efficacious when started at an age that corresponds to the time when prodromal stages can be identified in humans. In another set of rats, NAC was administered in the drinking water starting at P35, an age that in rats is equivalent to early adolescence. For PPI deficits was tested in adult SHAM (n=15), untreated NVHL (n=12), and NAC-treated NVHL rats (n=14).
Ebselen is a glutathione peroxidase (GPx) mimic (Muller et al., 1984) that induces GPx expression (Kil et al., 2007) and enhances GSH levels in neurons, replenishing GSH depleted by neurotoxic mechanisms (Pawlas and Malecki, 2007). PPI was tested in adult vehicle-treated SHAM (n=10), Ebselen-treated SHAM (n=7), vehicle-treated NVHL (n=8), and Ebselen-treated NVHL rats (n=9), and Ebselen treatment during adolescence reversed PPI deficits in NVHL rats (as shown in FIG. 15D).
In another group of rats, the effects of the NADPH oxidase inhibitor Apocynin was assessed while delivering through juvenile and adolescent stages. PPI was tested in adult vehicle-treated SHAM (n=10), apocynin-treated SHAM (n=11), vehicle treated NHVL (n=7), and apocynin-treated NVHL (n=5). As illustrated in FIG. 15C a reversal of PPI deficits was observed.
Antioxidant pretreatment regimen: NAC (BioAdvantexPharma, Mississauga, Ontario, Canada) was administered in the drinking water at 900 mg/l. NAC treatment started at P5 or at P35, and previous work in mice has shown that NAC consumed by the dam is transmitted to the pups through her milk (das Neves Duarte et al., 2012). NAC treatment ended at P50. Fresh solutions were prepared every 2-3 days. Ebselen (Sound Pharmaceuticals Inc., Seattle, WA) was administered i.p. 5 days a week starting at P35 until the day of PPI testing (P60). Stock ebselen solution (20 mg/ml DMSO, frozen aliquots) was diluted 1:5 in sterile water and administered at a dose of 10 mg/kg. Control animals received an equivalent concentration of DMSO diluted 1:5 in water. Apocynin (Sigma-Aldrich, St. Louis, MO) was administered in the drinking water at a target dose of 100 mg/kg (Nwokocha et al., 2013). Prior to weaning at P21, drinking water contained a dose of 2 g apocynin per 0.5 1 of water, to ensure delivery through the dam's milk. Apocynin concentration was lowered after weaning to 750 mg/1 to best approximate the target dose. Treatment lasted from P5 to P50 with fresh solutions prepared every other day.
Prepulse inhibition: Starting at P60, both male and female rats were tested for PPI, as described previously (Feleder et al., 2010). As PPI deficits in NVHL rats are most evident when rats are challenged with apomorphine (Lipska et al., 1995), we injected apomorphine (0.1 mg/kg, i.p.) immediately prior to the PPI test session. Rats were placed in a sound- attenuated startle chamber (San Diego Instruments, San Diego, CA) with a 70 dB background white noise. After a 5 min adaptation period, the PPI test was initiated with pseudorandom trials every 15 to 25 seconds. Either pulse (120 dB), prepulse (75 dB, 80 dB, or 85 dB), no pulse or prepulse +pulse were delivered. […]

SMILES: CC(=O)N[C@@H](CS)C(=O)O [NAC, N-acetyl cysteine]
- effect on MMN deficit [1]: improving
- effect on PPI deficit ([2]; apomorphine 0.1 mg/kg i.p. challenge, juvenile treatment P5 to P50, drinking water): prevented; also recorded: completely reversed
- effect on PPI deficit ([2]; adolescent treatment P35 to P50, drinking water, tested P61): prevented
